From PMC3342448 (Cancer Research, 2012)

Tests used:
[1] = tested on: MCF7-β3/MT cells; assay: COL-I degradation assay, MCF7-β3/MT cells; assay type: cell-based, Human; conditions: compound 100 μM, 3 days
[2] = tested on: 184B5-MT cells; assay: Cell adhesion assay on COL-I and Matrigel, 184B5-MT cells; assay type: cell-based, Human; conditions: compounds 25–100 μM, 1 h adhesion
[3] = tested on: MDA-MB-231 cells; assay: Transwell migration assay on COL-I, MDA-MB-231 cells; assay type: cell-based, Human; conditions: compounds 100 μM
[4] = tested on: MCF7-β3/MT cells; assay: Cell viability; assay type: cell-based, Human; conditions: 400 μM, 6 h
[5] = biological target: MT1-MMP (Homo sapiens, UniProt P50281); assay: Gelatin zymography of MCF7-β3/MT tumor extracts; assay type: in vivo; conditions: tumor extracts of mice treated 0.5 mg/kg intratumoral
[6] = tested on: MCF7-β3/MT xenografts; assay: MCF7-β3/MT tumor xenografts in mice; assay type: in vivo
[7] = biological target: MT1-MMP homodimerization (Homo sapiens, UniProt P50281); assay: MT1-MMP dimerization test; assay type: cell-based; conditions: compounds 100 μM, 24 h, MCF7-MT-V5 cells transfected with MT1-MMP-FLAG
[8] = biological target: T1, MMP-2 (Homo sapiens, UniProt P08253); assay: Catalytic activity of MMP-2; assay type: biochemical; conditions: not shown
T1 sequence (P08253 110-660): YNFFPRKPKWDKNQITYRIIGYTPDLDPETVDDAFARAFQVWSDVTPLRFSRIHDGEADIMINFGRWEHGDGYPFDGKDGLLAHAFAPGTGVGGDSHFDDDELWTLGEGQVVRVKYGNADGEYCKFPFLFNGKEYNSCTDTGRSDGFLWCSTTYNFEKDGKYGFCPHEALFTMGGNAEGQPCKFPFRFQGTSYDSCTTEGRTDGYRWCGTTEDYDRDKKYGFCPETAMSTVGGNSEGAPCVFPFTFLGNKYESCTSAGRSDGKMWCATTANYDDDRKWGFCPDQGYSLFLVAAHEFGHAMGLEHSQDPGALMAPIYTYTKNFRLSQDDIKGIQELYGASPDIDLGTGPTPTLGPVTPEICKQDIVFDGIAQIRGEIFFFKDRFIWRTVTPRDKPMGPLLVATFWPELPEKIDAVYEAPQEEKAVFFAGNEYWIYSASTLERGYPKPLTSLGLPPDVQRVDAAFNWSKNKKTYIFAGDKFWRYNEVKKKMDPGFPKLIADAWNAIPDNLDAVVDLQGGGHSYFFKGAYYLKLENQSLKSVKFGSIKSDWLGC

[9] = Solubility in aqueous solutions; assay type: physicochemical; conditions: 400 μM stock in PBS was highest reachable
[10] = biological target: cellular MT1-MMP (Homo sapiens, UniProt P50281); assay: Gelatin zymography of MMP-2 activation by 184B5-MT cells; assay type: cell-based; conditions: 184B5-MT cells with proMMP-2, compound 1–100 μM
[11] = biological target: CAT (Homo sapiens, UniProt P50281); assay: Cleavage of fluorescent peptide by MT1-MMP catalytic domain; assay type: biochemical; conditions: CAT 10 nM, fluorescent substrate 10 μM
[12] = tested on: 184B5-MT cells; assay: Transwell migration assay on COL-I, 184B5-MT cells; assay type: cell-based, Human; conditions: compounds 10–100 μM, 16–18 h

For `CCCC(C)NC(=O)c1ccc(Cl)c(Cl)c1` (stereo not drawn) [compound 9], the “collagenolytic activity (COL-I degradation) in MCF7-β3/MT cells” value [1] was “dramatically reduced”, the “adhesion of 184B5-MT on Matrigel and COL-I substrates” value [2] was “did not affect cell adhesion” and the “migration of MDA-MB-231 cells” value [3] was “did not show any inhibitory effect”. The “cytotoxicity in MCF7-β3/MT cells” value [4] was “did not demonstrate any cytotoxicity”, the “ability of MT1-MMP to activate MMP-2 in tumors” value [5] was “did not affect” and the “physical damage and necrosis in tumors after injections” value ([6]; 0.5 mg/kg intratumoral) was “no physical damage and necrosis”. For the same compound, the tumor phenotype ([6]; 0.5 mg/kg intratumoral injections) was “caused a fibrotic tumor phenotype”, the “xenograft angiogenesis (H&E staining)” value ([6]; 0.5 mg/kg intratumoral, compared with control mice) was “did not reveal any significant effect” and the “immunoreactivity and levels of COL-I in tumors” value ([6]; 0.5 mg/kg intratumoral, experimental versus control) was “significantly enhanced”. The “levels of co-precipitated MT1-MMP-V5 in pull-down samples (homodimerization)” value [7] was “significantly reduced”, the “catalytic activity of MMP-2” value [8] was “did not inhibit” and the solubility [9] was “limited solubility”. For the same compound, the “catalytic function of cellular MT1-MMP (MMP-2 activation)” value [10] was “did not inhibit”, the “effect on cleavage activity of CAT” value [11] was “did not affect the cleavage activity” and the “migration of 184B5-MT cells on COL-I” value [12] was “repressed migration of 184B5-MT cells on COL-I in a dose-dependent manner”.
